Data as given in ChEMBL document CHEMBL1201862, “PubChem BioAssay data set” (2004).
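Five compound concentrations were applied to cells in 96-well plates for 48 hours; endpoints were derived by simple linear interpolation of the resulting dose-response curve. Abbreviation: GI50, concentration required for 50% inhibition of growth.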 The source made the active and inactive calls. Cut-off read from the data, not from the text of the source: active = GI50 up to about 1.1 µM and inactive = higher.

How the values were obtained:
Test in all cases: NCI-60 cell line screen, 48 h
MDA-N = test system: MDA-N
CAKI-1 = test system: CAKI-1
OVCAR-4 = test system: OVCAR-4
MDA-MB-435 = test system: MDA-MB-435
HCC 2998 = test system: HCC 2998
SK-OV-3 = test system: SK-OV-3
HCT-15 = test system: HCT-15
SNB-19 = test system: SNB-19
TK-10 = test system: TK-10
SF-295 = test system: SF-295
COLO 205 = test system: COLO 205
OVCAR-3 = test system: OVCAR-3
A498 = test system: A498
K562 = test system: K562
NCI-H23 = test system: NCI-H23
ACHN = test system: ACHN
NCI/ADR-RES = test system: NCI/ADR-RES
UACC-257 = test system: UACC-257

| SMILES | GI50 (MDA-N) | GI50 (CAKI-1) | GI50 (OVCAR-4) | GI50 (MDA-MB-435) | GI50 (HCC 2998) | GI50 (SK-OV-3) | GI50 (HCT-15) | GI50 (SNB-19) | GI50 (TK-10) | GI50 (SF-295) | GI50 (COLO 205) | GI50 (OVCAR-3) | GI50 (A498) | GI50 (K562) | GI50 (NCI-H23) | GI50 (ACHN) | GI50 (NCI/ADR-RES) | GI50 (UACC-257) |
| --- | --- | --- | --- | --- | --- | --- | --- | --- | --- | --- | --- | --- | --- | --- | --- | --- | --- | --- |
| C=C(Br)CNC(=O)Nc1ccc(Cl)c(Cl)c1 | 27.3 µM (inactive) | 20.4 µM (inactive) | 29.5 µM (inactive) | 20.3 µM (inactive) | 18.5 µM (inactive) | 29 µM (inactive) | 30.5 µM | 21.7 µM (inactive) | 25.8 µM (inactive) | 26 µM (inactive) | 16.9 µM (inactive) | 13.4 µM (inactive) | 9.12 µM (inactive) | 23.8 µM (inactive) | 15.6 µM (inactive) | 17.5 µM (inactive) | 16.6 µM (inactive) |  |
| Cc1cc(C)cc(Nc2cc(O)nc(O)n2)c1 | > 100 µM (inactive) |  | > 100 µM (inactive) | > 100 µM (inactive) | > 100 µM (inactive) |  | > 100 µM | > 100 µM (inactive) | > 100 µM (inactive) | > 100 µM (inactive) | > 100 µM (inactive) | > 100 µM (inactive) | > 100 µM (inactive) | > 100 µM (inactive) | > 100 µM (inactive) | > 100 µM (inactive) | > 100 µM (inactive) | > 100 µM (inactive) |
| O=C1C=C(c2c(-c3ccccc3)[nH]c3ccccc23)C(=O)N1c1ccccc1 | 3.89 µM (inactive) | 5.53 µM (inactive) |  | 4.02 µM (inactive) | 7.94 µM (inactive) | 24.8 µM (inactive) | 5.38 µM | 21.9 µM (inactive) | 12.7 µM (inactive) | 10.6 µM (inactive) | 8.3 µM (inactive) | 4.41 µM (inactive) | 10.6 µM (inactive) | 7.41 µM (inactive) | 10.7 µM (inactive) | 13.9 µM (inactive) | 8.45 µM (inactive) | 9.25 µM (inactive) |
| Nc1ccccc1N/C=C\C(=O)C(Cl)(Cl)Cl | 16.6 µM (inactive) | 19.6 µM (inactive) | 19.5 µM (inactive) | 14.8 µM (inactive) | 16.6 µM (inactive) | 25.2 µM (inactive) | 19 µM | 34.1 µM (inactive) | 30.6 µM (inactive) | 23.4 µM (inactive) | 22.8 µM (inactive) |  | 18.8 µM (inactive) | 17.1 µM (inactive) | 22.7 µM (inactive) | 16.3 µM (inactive) | 31 µM (inactive) | 21.9 µM (inactive) |
| CC(=O)OCC1OC(NC(=S)Nn2c(-c3ccccc3)nc3ccccc3c2=O)C(OC(C)=O)C(OC(C)=O)C1OC(C)=O (configuration not stated) | > 100 µM (inactive) | > 100 µM (inactive) |  | > 100 µM (inactive) | 97.9 µM (inactive) | > 100 µM (inactive) | > 100 µM | > 100 µM (inactive) |  | > 100 µM (inactive) | > 100 µM (inactive) | 30.8 µM (inactive) | > 100 µM (inactive) | > 100 µM (inactive) | > 100 µM (inactive) | > 100 µM (inactive) | > 100 µM (inactive) | > 100 µM (inactive) |
| C#CC(O)/C=C/C(O)CCCC(O)CC#CC(O)C#CCCCCC(O)/C=C/CCCC(O)/C=C/CCCCCCCCCCCCCC(O)C(O)C#CC(=O)O (configuration not stated) | > 25 µM (inactive) | > 25 µM (inactive) | > 25 µM (inactive) | > 25 µM (inactive) | > 25 µM (inactive) | > 25 µM (inactive) | > 25 µM | > 25 µM (inactive) | > 25 µM (inactive) | > 25 µM (inactive) | > 25 µM (inactive) |  | > 25 µM (inactive) | > 25 µM (inactive) | > 25 µM (inactive) | > 25 µM (inactive) | > 25 µM (inactive) | > 25 µM (inactive) |
| Nc1nc(Cl)nc2c1ncn2C1CCC(COP(=O)(O)OP(=O)(O)OP(=O)(O)O)O1 (configuration not stated) | 38 µM (inactive) | 6.89 µM (inactive) | 24.9 µM (inactive) | 23 µM (inactive) | 28.1 µM (inactive) | 57.3 µM (inactive) | 34.8 µM | > 100 µM (inactive) | 25.1 µM (inactive) | 17.9 µM (inactive) | 20.5 µM (inactive) | 50.2 µM (inactive) | 26.1 µM (inactive) |  | 19.9 µM (inactive) | 25.2 µM (inactive) | 21.8 µM (inactive) | 41.6 µM (inactive) |
| C=CCOC(=O)N1[C@H]2C#C/C=C\C#C[C@]3(O)C(=O)C[C@H](C)[C@]24O[C@]43C2=CC(=O)C=CC21OC (some centres not stated) | 28.6 µM (inactive) | 33.1 µM (inactive) | 26.4 µM (inactive) | 16.6 µM (inactive) | 26.5 µM (inactive) | 60.1 µM (inactive) | 31.4 µM | 38.3 µM (inactive) | 18.4 µM (inactive) | 44 µM (inactive) | 13.6 µM (inactive) |  | 2.35 µM (inactive) | 42.2 µM (inactive) | 27.2 µM (inactive) | 20.2 µM (inactive) | 43.8 µM (inactive) | 19.4 µM (inactive) |
| CC1CC2OC(=N)C1(C#N)C2(C#N)C#N (configuration not stated) | 16.3 µM (inactive) | 7.57 µM (inactive) |  | 34 µM (inactive) | 19.5 µM (inactive) | > 100 µM (inactive) | 14 µM | 34.8 µM (inactive) | 26.8 µM (inactive) | 79.1 µM (inactive) | 10.9 µM (inactive) |  | 20.3 µM (inactive) | 17.9 µM (inactive) | 23.6 µM (inactive) | 31.4 µM (inactive) | 29.1 µM (inactive) | 18.8 µM (inactive) |
| O=c1[nH]c(=O)n(CCOc2ccccc2)cc1Nc1ccccc1 | > 100 µM (inactive) | > 100 µM (inactive) |  | > 100 µM (inactive) | > 100 µM (inactive) |  | > 100 µM | > 100 µM (inactive) |  | 41.8 µM (inactive) | > 100 µM (inactive) | > 100 µM (inactive) | > 100 µM (inactive) | > 100 µM (inactive) | > 100 µM (inactive) | 92.7 µM (inactive) | > 100 µM (inactive) | > 100 µM (inactive) |
| COc1ccc(Nc2nc3ccc(C(F)(F)F)cc3nc2C(=O)O)cc1 | 42.2 µM (inactive) | 46.8 µM (inactive) | 47.8 µM (inactive) | 34.3 µM (inactive) | 24 µM (inactive) | 20.4 µM (inactive) | 28.6 µM |  | 30.3 µM (inactive) | 23.6 µM (inactive) | 34.1 µM (inactive) | 19.9 µM (inactive) | 16.7 µM (inactive) | 29.9 µM (inactive) | 20.6 µM (inactive) |  | 29.9 µM (inactive) | 32.6 µM (inactive) |
| COc1cccc2c(=O)oc(-c3ccccc3C)nc12 | 19.8 µM (inactive) | 35.2 µM (inactive) | 22.7 µM (inactive) | 33.6 µM (inactive) | 35 µM (inactive) | > 100 µM (inactive) | 43.9 µM |  | > 100 µM (inactive) | 42.6 µM (inactive) | 39.8 µM (inactive) | 29 µM (inactive) | > 100 µM (inactive) | 39.8 µM (inactive) | 61.4 µM (inactive) | 43 µM (inactive) | 29.2 µM (inactive) |  |
